From patent US8426345B2, “Method of drug design” (Alchemia Limited, priority 2005, dated 2013)

Target: T1, Human SST5 somatostatin receptor (Homo sapiens, UniProt P35346)
T1 construct: expressed in transfected cells; host or cells: HEK-293 EBNA cells (membranes)
Assay: Filter plate radio-ligand binding assay for SST5 receptor ([125I]SST-14 displacement)
Settings: 3P library; for % SST5 radio-ligand binding displaced at conc 50: conc 50 μM; for % SST5 radio-ligand binding displaced at conc 250: conc 250 μM; for % SST5 radio-ligand binding displaced at conc 500: conc 500 μM; for % SST5 radio-ligand binding displaced at conc 1.0: conc 1.0 μM; for % SST5 radio-ligand binding displaced at conc 0.25: conc 0.25 μM

T1 sequence (P35346 whole entry): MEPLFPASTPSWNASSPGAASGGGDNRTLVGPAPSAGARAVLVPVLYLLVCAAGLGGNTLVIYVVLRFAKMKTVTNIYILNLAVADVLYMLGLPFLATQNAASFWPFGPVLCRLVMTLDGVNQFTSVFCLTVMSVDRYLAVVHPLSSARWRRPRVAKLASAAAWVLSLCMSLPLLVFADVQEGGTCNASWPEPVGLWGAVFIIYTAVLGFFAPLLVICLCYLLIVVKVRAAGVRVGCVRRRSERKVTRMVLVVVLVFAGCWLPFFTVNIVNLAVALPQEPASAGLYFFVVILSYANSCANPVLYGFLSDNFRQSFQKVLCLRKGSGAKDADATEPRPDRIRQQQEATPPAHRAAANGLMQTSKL

COC[C@H]1O[C@H](OCc2ccc3ccccc3c2)[C@H](NC(=O)CCCN)[C@@H](OC)[C@@H]1O [Compound 119]
% SST5 radio-ligand binding displaced at conc 50: − (% SST5 radio-ligand binding displaced at cone (μM) −<40%)
% SST5 radio-ligand binding displaced at conc 250: + (% SST5 radio-ligand binding displaced at cone (μM) 60>+>40%)
% SST5 radio-ligand binding displaced at conc 500: ++ (% SST5 radio-ligand binding displaced at conc (μM) >60%)

COC[C@H]1O[C@H](OCc2ccc3ccccc3c2)[C@H](NC(=O)CCCN)[C@@H](OCc2ccc(Cl)cc2)[C@@H]1O [Compound 134]
% SST5 radio-ligand binding displaced at conc 0.001 (conc 0.001 μM): + (% SST5 radio-ligand binding displaced at cone (μM) 60>+>40%)
% SST5 radio-ligand binding displaced at conc 0.10 (conc 0.10 μM): ++ (% SST5 radio-ligand binding displaced at conc (μM) >60%)
% SST5 radio-ligand binding displaced at conc 0.5 (conc 0.5 μM): ++ (% SST5 radio-ligand binding displaced at conc (μM) >60%)
% SST5 radio-ligand binding displaced at conc 1.0: ++ (% SST5 radio-ligand binding displaced at conc (μM) >60%)
% SST5 radio-ligand binding displaced at conc 10 (conc 10 μM): ++ (% SST5 radio-ligand binding displaced at conc (μM) >60%)

NCCCC(=O)N[C@H]1[C@@H](OCc2ccc3ccccc3c2)O[C@H](COCc2ccc3ccccc3c2)[C@@H](O)[C@@H]1OCc1ccc(Cl)cc1 [Compound 135]
% SST5 radio-ligand binding displaced at conc 0.25: − (% SST5 radio-ligand binding displaced at cone (μM) −<40%)
% SST5 radio-ligand binding displaced at conc 1.0: ++ (% SST5 radio-ligand binding displaced at conc (μM) >60%)

NCCCC(=O)N[C@H]1[C@@H](OCc2ccc3ccccc3c2)O[C@H](COCc2ccccc2)[C@@H](O)[C@@H]1OCc1ccc(Cl)cc1 [Compound 136]
% SST5 radio-ligand binding displaced at conc 0.25: − (% SST5 radio-ligand binding displaced at cone (μM) −<40%)
% SST5 radio-ligand binding displaced at conc 1.0: ++ (% SST5 radio-ligand binding displaced at conc (μM) >60%)

NCCCC(=O)N[C@H]1[C@@H](OCc2ccc3ccccc3c2)O[C@H](COCc2ccc(Cl)cc2)[C@@H](O)[C@@H]1OCc1ccc(Cl)cc1 [Compound 137]
% SST5 radio-ligand binding displaced at conc 0.25: − (% SST5 radio-ligand binding displaced at cone (μM) −<40%)
% SST5 radio-ligand binding displaced at conc 1.0: ++ (% SST5 radio-ligand binding displaced at conc (μM) >60%)

COC[C@H]1O[C@H](OCc2ccc3ccccc3c2)[C@H](NC(=O)C(N)CCN)[C@@H](OCc2ccc3ccccc3c2)[C@@H]1O (stereo partly drawn) [Compound 138]
% SST5 radio-ligand binding displaced at conc 0.25: − (% SST5 radio-ligand binding displaced at cone (μM) −<40%)
% SST5 radio-ligand binding displaced at conc 1.0: − (% SST5 radio-ligand binding displaced at cone (μM) −<40%)

CNCCCC(=O)N[C@H]1[C@@H](OCc2ccc3ccccc3c2)O[C@H](COC)[C@@H](O)[C@@H]1OCc1ccc2ccccc2c1 [Compound 139]
% SST5 radio-ligand binding displaced at conc 0.25: − (% SST5 radio-ligand binding displaced at cone (μM) −<40%)
% SST5 radio-ligand binding displaced at conc 1.0: + (% SST5 radio-ligand binding displaced at cone (μM) 60>+>40%)

COC[C@H]1O[C@H](OCc2ccc3ccccc3c2)[C@H](NC(=O)CCC(C)N)[C@@H](OCc2ccc3ccccc3c2)[C@@H]1O (stereo partly drawn) [Compound 140]
% SST5 radio-ligand binding displaced at conc 0.25: ++ (% SST5 radio-ligand binding displaced at conc (μM) >60%)
% SST5 radio-ligand binding displaced at conc 1.0: ++ (% SST5 radio-ligand binding displaced at conc (μM) >60%)

COC[C@H]1O[C@H](OCc2ccc3ccccc3c2)[C@H](NC(=O)CCCN(C)C)[C@@H](OCc2ccc3ccccc3c2)[C@@H]1O [Compound 141]
% SST5 radio-ligand binding displaced at conc 0.25: − (% SST5 radio-ligand binding displaced at cone (μM) −<40%)
% SST5 radio-ligand binding displaced at conc 1.0: − (% SST5 radio-ligand binding displaced at cone (μM) −<40%)

COC[C@H]1O[C@H](OCc2ccc3ccccc3c2)[C@H](NC(=O)CCCN2CCCC2)[C@@H](OCc2ccc3ccccc3c2)[C@@H]1O [Compound 143]
% SST5 radio-ligand binding displaced at conc 0.25: − (% SST5 radio-ligand binding displaced at cone (μM) −<40%)
% SST5 radio-ligand binding displaced at conc 1.0: − (% SST5 radio-ligand binding displaced at cone (μM) −<40%)

COC[C@H]1O[C@H](OCc2ccc3ccccc3c2)[C@H](NC(=O)CCCN)[C@@H](OCc2cccc(Cl)c2)[C@@H]1O [Compound 144]
% SST5 radio-ligand binding displaced at conc 0.25: + (% SST5 radio-ligand binding displaced at cone (μM) 60>+>40%)
% SST5 radio-ligand binding displaced at conc 1.0: ++ (% SST5 radio-ligand binding displaced at conc (μM) >60%)

COC[C@H]1O[C@H](OCc2ccc3ccccc3c2)[C@H](NC(=O)CCCN)[C@@H](OCc2cc(Cl)ccc2Cl)[C@@H]1O [Compound 145]
% SST5 radio-ligand binding displaced at conc 0.25: + (% SST5 radio-ligand binding displaced at cone (μM) 60>+>40%)
% SST5 radio-ligand binding displaced at conc 1.0: ++ (% SST5 radio-ligand binding displaced at conc (μM) >60%)

COC[C@H]1O[C@H](OCc2ccc3ccccc3c2)[C@H](NC(=O)CCCN)[C@@H](OCc2ccccc2Cl)[C@@H]1O [Compound 146]
% SST5 radio-ligand binding displaced at conc 0.25: − (% SST5 radio-ligand binding displaced at cone (μM) −<40%)
% SST5 radio-ligand binding displaced at conc 1.0: ++ (% SST5 radio-ligand binding displaced at conc (μM) >60%)

COC[C@H]1O[C@H](OCc2ccc3ccccc3c2)[C@H](NC(=O)CCCN)[C@@H](OCc2cccc3cccnc23)[C@@H]1O [Compound 147]
% SST5 radio-ligand binding displaced at conc 0.25: + (% SST5 radio-ligand binding displaced at cone (μM) 60>+>40%)
% SST5 radio-ligand binding displaced at conc 1.0: ++ (% SST5 radio-ligand binding displaced at conc (μM) >60%)

COC[C@H]1O[C@H](OCc2ccc3ccccc3c2)[C@H](NC(=O)CCCN)[C@@H](OCc2nc3ccccc3s2)[C@@H]1O [Compound 148]
% SST5 radio-ligand binding displaced at conc 0.25: − (% SST5 radio-ligand binding displaced at cone (μM) −<40%)
% SST5 radio-ligand binding displaced at conc 1.0: − (% SST5 radio-ligand binding displaced at cone (μM) −<40%)

COC[C@H]1O[C@H](OCc2ccc3ccccc3c2)[C@H](NC(=O)CCCN)[C@@H](OCc2nccc3ccccc23)[C@@H]1O [Compound 149]
% SST5 radio-ligand binding displaced at conc 0.25: − (% SST5 radio-ligand binding displaced at cone (μM) −<40%)
% SST5 radio-ligand binding displaced at conc 1.0: + (% SST5 radio-ligand binding displaced at cone (μM) 60>+>40%)

COC[C@H]1O[C@H](OCc2ccc3ccccc3c2)[C@H](NC(=O)CCCN)[C@@H](OCc2ccc(Cl)c(Cl)c2)[C@@H]1O [Compound 150]
% SST5 radio-ligand binding displaced at conc 0.25: ++ (% SST5 radio-ligand binding displaced at conc (μM) >60%)
% SST5 radio-ligand binding displaced at conc 1.0: ++ (% SST5 radio-ligand binding displaced at conc (μM) >60%)

COC[C@H]1O[C@H](OCc2ccc3ccccc3c2)[C@H](NC(=O)CCCN)[C@@H](OCc2cccc3ccccc23)[C@@H]1O [Compound 151]
% SST5 radio-ligand binding displaced at conc 0.25: + (% SST5 radio-ligand binding displaced at cone (μM) 60>+>40%)
% SST5 radio-ligand binding displaced at conc 1.0: ++ (% SST5 radio-ligand binding displaced at conc (μM) >60%)

COC[C@H]1O[C@H](OCc2ccc3ccccc3c2)[C@H](NC(=O)CCCN)[C@@H](OCc2ccc(Cl)cc2Cl)[C@@H]1O [Compound 152]
% SST5 radio-ligand binding displaced at conc 0.25: + (% SST5 radio-ligand binding displaced at cone (μM) 60>+>40%)
% SST5 radio-ligand binding displaced at conc 1.0: ++ (% SST5 radio-ligand binding displaced at conc (μM) >60%)

COC[C@H]1O[C@H](OCc2ccc3ccccc3c2)[C@H](NC(=O)CCCN)[C@@H](OCc2ccc3ccccc3n2)[C@@H]1O [Compound 153]
% SST5 radio-ligand binding displaced at conc 0.25: ++ (% SST5 radio-ligand binding displaced at conc (μM) >60%)
% SST5 radio-ligand binding displaced at conc 1.0: ++ (% SST5 radio-ligand binding displaced at conc (μM) >60%)

COC[C@H]1O[C@H](OCc2ccc3ccccc3c2)[C@H](NC(=O)CCCN)[C@@H](OCc2cccc(Cl)c2Cl)[C@@H]1O [Compound 154]
% SST5 radio-ligand binding displaced at conc 0.25: ++ (% SST5 radio-ligand binding displaced at conc (μM) >60%)
% SST5 radio-ligand binding displaced at conc 1.0: ++ (% SST5 radio-ligand binding displaced at conc (μM) >60%)

COC[C@H]1O[C@H](OCc2ccc3ccccc3c2)[C@H](NC(=O)CCCN)[C@@H](OCc2ccc(Oc3ccccc3)cc2)[C@@H]1O [Compound 155]
% SST5 radio-ligand binding displaced at conc 0.25: ++ (% SST5 radio-ligand binding displaced at conc (μM) >60%)
% SST5 radio-ligand binding displaced at conc 1.0: ++ (% SST5 radio-ligand binding displaced at conc (μM) >60%)

COC[C@H]1O[C@H](OCc2ccc(Cl)cc2)[C@H](NC(=O)CN)[C@@H](OC)[C@@H]1O [Compound 156]
% SST5 radio-ligand binding displaced at conc 50: − (% SST5 radio-ligand binding displaced at cone (μM) −<40%)
% SST5 radio-ligand binding displaced at conc 250: − (% SST5 radio-ligand binding displaced at cone (μM) −<40%)
% SST5 radio-ligand binding displaced at conc 500: − (% SST5 radio-ligand binding displaced at cone (μM) −<40%)

COC[C@H]1O[C@@H](OCc2ccc(Cl)cc2)[C@H](NC(=O)CN)[C@@H](OC)[C@@H]1O [Compound 157]
% SST5 radio-ligand binding displaced at conc 50: − (% SST5 radio-ligand binding displaced at cone (μM) −<40%)
% SST5 radio-ligand binding displaced at conc 250: − (% SST5 radio-ligand binding displaced at cone (μM) −<40%)
% SST5 radio-ligand binding displaced at conc 500: − (% SST5 radio-ligand binding displaced at cone (μM) −<40%)

COC[C@H]1O[C@H](OCc2ccc(Cl)cc2)[C@H](NC(=O)CN)[C@H](OC)[C@@H]1O [Compound 158]
% SST5 radio-ligand binding displaced at conc 50: − (% SST5 radio-ligand binding displaced at cone (μM) −<40%)
% SST5 radio-ligand binding displaced at conc 250: − (% SST5 radio-ligand binding displaced at cone (μM) −<40%)
% SST5 radio-ligand binding displaced at conc 500: − (% SST5 radio-ligand binding displaced at cone (μM) −<40%)

COC[C@H]1O[C@@H](OCc2ccc(Cl)cc2)[C@H](NC(=O)CN)[C@H](OC)[C@@H]1O [Compound 159]
% SST5 radio-ligand binding displaced at conc 50: − (% SST5 radio-ligand binding displaced at cone (μM) −<40%)
% SST5 radio-ligand binding displaced at conc 250: − (% SST5 radio-ligand binding displaced at cone (μM) −<40%)
% SST5 radio-ligand binding displaced at conc 500: − (% SST5 radio-ligand binding displaced at cone (μM) −<40%)
